In patent US9700596B2, “Locally released growth factors to mediate motor recovery after stroke” (The Regents of the University of California, priority 2011, dated 2017):
“Also recorded” adds a separate entry of the source.

B1: brain derived neurotrophic factor (protein)
chain: HSDPARRGELSVCDSISEWVTAADKKTAVDMSGGTVTVLEKVPVSKGQLKQYFYETKCNPMGYTKEGCRGIDKRHWNSQCRTTQSYVRALTMDSKKRIGWRFIRIDTSCVCTLTIKRGR
notes: growth factor, delivered through HYSTEM-C from 7 days after stroke

Tests used:
[1] = test system: focal stroke in forelimb motor cortex; assay: Grid-walking task (footfaults) after photothrombotic focal stroke; format: in vivo, mouse; conditions: for number of forelimb footfaults / function of impaired forelimb, grid-walking: i.p. twice daily from 5 d after stroke for 6 weeks, CX1837 0.33 or 1 mg/kg, CX1739 3 or 30 mg/kg, CFM2 50 μmol/kg, vs stroke plus vehicle
Procedure: (§1) Focal stroke was induced by photothrombosis in adult male C57BL/6 mice weighing 20-25 g as previously described (Clarkson et al. (2010) Nature 468: 305-309).
(§2) CX1837 (0.33 and 1 mg/kg) and CX1739 (3 and 30 mg/kg) were dissolved in 30% hydroxypropyl_β-cyclodextran (HPCD) (made 1:1 in 0.9% saline and distilled H2O) and administered intraperitoneally twice daily starting 5 d after stroke for a period of 6 weeks. The AMPAR antagonist CFM2 ([…]) (De Sarro et al. (1999) Eur. J. Pharmacol., 368: 149-159) was administered intraperitoneally twice daily for 6 weeks.
A hyaluronan/heparin sulfate proteoglycan biopolymer hydrogel (Extracel-HP, a.k.a., HYSTEM®-HP; BioTime,) was used to locally deliver TrkB-Fc (5 μg/ml) and human IgG-Fc (antibody and vehicle control) to the periinfarct cortex (Li et al. (2010) Nat. Neurosci. 13: 1496-1504). This hydrogel was chosen because it is composed of naturally occurring brain extracellular matrix constituents; remains liquid for a period after mixing so that it can be injected into the brain through a small, minimally invasive needle; and will gel within the stroke cavity, conforming to the boundaries of this cavity. We have shown that this hydrogel releases small and large proteins for up to 4 weeks from the infarct cavity after stroke. Five days after stroke, 10 μl of Extracel-HP (HYSTEM®-HP), impregnated with TrkB-Fc (5 μg/ml) or human IgG-Fc (vehicle), was injected directly into the stroke infarct cavity using a 30 gauge needle attached to a Hamilton syringe. Extracel-HP was prepared according to the manufacturer's instructions. […]
(§3) Animals were tested once on both the grid-walking and cylinder tasks, 1 week before surgery to establish baseline performance levels. For the reaching task, mice were trained for a period of 14 d and subsequently tested on day 15 to establish a baseline reading. […] Behaviors were scored by observers who were blind to the treatment group of the animals in the study as previously described (Clarkson et al. (2010) Nature 468: 305-309). […]

[2] = test system: focal stroke in forelimb motor cortex; assay: Spontaneous-forelimb (cylinder) task after photothrombotic focal stroke; format: in vivo, mouse; conditions: i.p. twice daily from 5 d after stroke for 6 weeks; CX1837 0.33 or 1 mg/kg, CX1739 3 or 30 mg/kg; vs stroke plus vehicle
Procedure: as §1, §2
A hyaluronan/heparin sulfate proteoglycan biopolymer hydrogel (Extracel-HP, a.k.a., HYSTEM®-HP; BioTime,) was used to locally deliver TrkB-Fc (5 μg/ml) and human IgG-Fc (antibody and vehicle control) to the periinfarct cortex (Li et al. (2010) Nat. Neurosci. 13: 1496-1504). […]
as §3

[3] = test system: BDNF; assay: BDNF ELISA of cortical tissue 7 d after stroke; format: in vivo, mouse; conditions: treatment from day 5, CX1837 1 mg/kg, CX1739 3 mg/kg, vs stroke plus vehicle
Procedure: (§4) Tissue was collected from around the stroke site from stroke plus vehicle, stroke plus CX1837 (1 mg/kg), and stroke plus CX1739 (3 mg/kg), and control groups 7 d after stroke. Cortical tissue was dissected in a 1 mm radius around the stroke infarct core, including the core itself, and flash frozen on dry ice.
Equal volumes of tissue were homogenized in […] of homogenization buffer [Complete Protease Inhibitor Tablet (Invitrogen), 1 mM phenylmethylsulfonylfluoride, 50 mM Tris-HCl, 5 mM EDTA, 10 mM EGTA, 1% Triton X-100] for ˜1 min. Tissue and homogenization buffer were incubated on ice for 30 min, followed by a 5 min spin at 14,000 rpm. The supernatant was collected and total protein concentrations were determined using the DC Protein Assay (Bio-Rad). BDNF was measured using the BDNF ELISA Emax Immunoassay System (Promega) as per the manufacturer's instructions. BDNF levels were determined relative to a standard curve constructed from measures of kit-supplied BDNF protein standards (0-500 pg of BDNF protein) that were assayed simultaneously with the experimental samples. BDNF levels are expressed as picograms of BDNF per 100 μg of sample protein.

[4] = test system: TrkB; assay: TrkB/p-Trk immunoblotting of cortical tissue 7 d after stroke; format: in vivo, mouse; conditions: CX1837 1 mg/kg, CX1739 3 mg/kg, vs stroke plus vehicle
Procedure: as §4
For immunoblotting experiments, protein (10 μg) was loaded onto a 12% SDS-polyacrylamide gel, subjected to electrophoresis, and transferred to a pure nitrocellulose membrane (GE Healthcare). The membrane was blocked in 10% nonfat milk and probed with polyclonal antibodies specific for anti-TrkB (1:1000; Santa Cruz Biotechnology) and anti-p-Trk (1:5000; Santa Cruz Biotechnology). The blots were incubated with peroxidase-labeled anti-rabbit IgG (1:2000; Vector Laboratories) and immunoreactive proteins were visualized using enhanced chemiluminescence (GE Healthcare). β-Actin was used as a loading control (1:5000; Abcam). Optical density (OD) was determined using the NIH ImageJ software. Pixel intensities were converted to OD using the calibration curve of the software, and background-subtracted values were expressed as OD/[…] total protein.

[5] = test system: hilar EPSPs (dentate gyrus of the hippocampus)
Procedure: Male Long-Evans rats (250-350 g) were anesthetized by pentobarbital (60 mg/kg, i.p.) and maintained under anesthesia by pentobarbital infusion (2-4 mg·kg-^1·h^−1). Under anesthesia, animals were placed in a stereotaxic frame and small holes were drilled into the skull of the left hemisphere to allow the positioning of a stimulating electrode (−7.8 to −8.1 AP; 4.2 to 4.4 ML) and a recording electrode (−3.0 to −3.3 AP; 1.6 to 2.2 ML). A monopolar stainless-steel stimulating electrode (175 μm, insulated with Formvar) was lowered into the perforant path together with a platinum/iridium recording electrode (75 μm) into the hilus of the dentate gyms of the hippocampus. The current used to elicit an evoked potential was adjusted to produce a response size 50-60% of the maximal spike-free amplitude. Evoked hilar EPSPs were recorded in response to single-pulse stimulation delivered at a frequency of one pulse per 20 s.
Data acquisition and analysis was performed using commercially available software (NAC and NACSHOW).

[6] = test system: focal stroke in forelimb motor cortex; assay: Single-pellet skilled-reaching task after stroke; format: in vivo, mouse; conditions: CFM2 50 μmol/kg i.p. bid from 5 d after stroke
Procedure: For loss-of-function studies assessing CFM2, the single-pellet skilled-reaching task was used (Conner et al. (2005) Neuron 46: 173-179). Before stroke, animals were trained for […] to successfully reach and retrieve 20 mg sugar pellets (Bio-Serv). A three lane Plexiglas reaching apparatus (30 cm deep, 10 cm wide, and 30 cm high for each lane) was constructed to allow simultaneous recording of three animals. Each lane consists of two 5 mm slots situated against the front-right and front-left walls of the chamber to force the mouse the reach for the pellets using either their right or left forepaws. A 5-mm-thick plastic shelf was mounted 15 mm from the floor at the front of the box.
During the training period, mice were fasted to 90% of their body weight and maintained at this level for the full 3 week training period. […]
All mice were fasted the night before testing. Pellets were presented one at a time and reaches were recorded with a Canon VIXIA HV30 video recorder. […] If an animal reached through the slot and obtained/grasped a food pellet and brought the pellet back through the slot, the reach was scored as a success. If an animal knocked the pellet away or dropped the pellet after grasping it, the reach was scored as a miss. The performance of each mouse was scored as follows: percentage success[…](number of successful retrievals/15)*100.

[7] = CFM2 50 μmol/kg i.p. bid; cited from earlier work

Row | Molecule | number of forelimb footfaults / function of impaired forelimb, grid-walking [1] | forelimb asymmetry (left/right ratio), cylinder task [2] | BDNF levels in periinfarct cortex [3] | TrkB phosphorylation in periinfarct cortex [4] | excitability ceiling of the EPSP amplitude effect (dose) ([5]; i.p., anesthetized rats) [mg/kg] | crossing of the blood-brain barrier when given systemically ([5]; rat, in vivo, ip) | successful pellet retrieval with impaired right forelimb [6] | general behavioral side effects (reduced motor activity, impaired grooming, weight loss) [7] | forelimb footfaults / functional recovery with hydrogel-delivered BDNF ([1]; injected 7 days after stroke, 4 weeks after injection, 5 weeks after stroke)
1 | CN(C(=O)c1ccc2nonc2c1)C1CCOCC1 [CX1739] | small decrease in the number of footfaults; also recorded: small yet non-significant decrease in the number of footfaults | small increase in the use of the right-impaired forelimb; also recorded: did not result in a decrease in the left/ratio | did not change the level of BDNF expression | did not change the level of TrkB phosphorylation | 10 | cross the blood-brain barrier |  |  | 
2 | COc1cc2c(cc1OC)C(c1ccc(N)cc1)=NNC(=O)C2 [CFM2] | significant impairment in the normal gain of motor function; also recorded: significant increase in the number of footfaults |  |  |  |  |  | significant impairment in the ability to retrieve pellets successfully out to 2 weeks after stroke; also recorded: decrease in the number of pellets successfully retrieved | did not produce general behavioral side effects | 
3 | B1 |  |  |  |  |  |  |  |  | significant improvements in functional recovery
